Laboratory results: patent US11713338B2, “Cyclic peptides multimers targeting α-4-β-7 integrin” (priority 2016, dated 2023)
pIC50: −log10 of the molar value.

Target: T1, integrin α4β7 (RPMI8866 human cells adhering to MAdCAM-1) (Homo sapiens, UniProt P13612+P26010)
T1 construct: RMP18866 cells, which express integrin α4β7; host or cells: RPMI8866
T1 sequence (P13612 34-1032): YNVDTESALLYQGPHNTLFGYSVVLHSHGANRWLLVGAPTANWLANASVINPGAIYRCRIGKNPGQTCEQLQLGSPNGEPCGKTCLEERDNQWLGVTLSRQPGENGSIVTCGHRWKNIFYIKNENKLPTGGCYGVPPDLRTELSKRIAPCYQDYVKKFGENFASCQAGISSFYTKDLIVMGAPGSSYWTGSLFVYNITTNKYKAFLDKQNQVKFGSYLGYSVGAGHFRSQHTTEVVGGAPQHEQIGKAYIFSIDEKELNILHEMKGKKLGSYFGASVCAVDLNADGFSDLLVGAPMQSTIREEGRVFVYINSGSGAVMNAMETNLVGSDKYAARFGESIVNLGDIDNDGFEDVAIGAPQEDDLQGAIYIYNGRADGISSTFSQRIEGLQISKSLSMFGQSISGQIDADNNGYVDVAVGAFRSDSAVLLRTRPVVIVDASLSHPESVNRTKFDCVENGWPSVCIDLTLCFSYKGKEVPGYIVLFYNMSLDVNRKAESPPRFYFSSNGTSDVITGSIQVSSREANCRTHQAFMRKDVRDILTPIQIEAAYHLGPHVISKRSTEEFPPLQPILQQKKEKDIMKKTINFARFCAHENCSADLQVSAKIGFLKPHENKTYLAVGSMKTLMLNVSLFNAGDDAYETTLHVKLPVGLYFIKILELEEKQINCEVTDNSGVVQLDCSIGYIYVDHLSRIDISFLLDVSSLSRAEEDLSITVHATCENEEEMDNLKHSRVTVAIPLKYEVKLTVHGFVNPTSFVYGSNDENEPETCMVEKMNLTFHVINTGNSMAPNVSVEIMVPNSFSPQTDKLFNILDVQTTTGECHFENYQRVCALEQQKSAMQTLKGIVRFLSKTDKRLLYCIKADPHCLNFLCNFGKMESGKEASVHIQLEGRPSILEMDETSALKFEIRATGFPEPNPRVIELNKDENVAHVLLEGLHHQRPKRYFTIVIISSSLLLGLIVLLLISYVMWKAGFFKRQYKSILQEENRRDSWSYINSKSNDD
T1 sequence (P26010 20-798): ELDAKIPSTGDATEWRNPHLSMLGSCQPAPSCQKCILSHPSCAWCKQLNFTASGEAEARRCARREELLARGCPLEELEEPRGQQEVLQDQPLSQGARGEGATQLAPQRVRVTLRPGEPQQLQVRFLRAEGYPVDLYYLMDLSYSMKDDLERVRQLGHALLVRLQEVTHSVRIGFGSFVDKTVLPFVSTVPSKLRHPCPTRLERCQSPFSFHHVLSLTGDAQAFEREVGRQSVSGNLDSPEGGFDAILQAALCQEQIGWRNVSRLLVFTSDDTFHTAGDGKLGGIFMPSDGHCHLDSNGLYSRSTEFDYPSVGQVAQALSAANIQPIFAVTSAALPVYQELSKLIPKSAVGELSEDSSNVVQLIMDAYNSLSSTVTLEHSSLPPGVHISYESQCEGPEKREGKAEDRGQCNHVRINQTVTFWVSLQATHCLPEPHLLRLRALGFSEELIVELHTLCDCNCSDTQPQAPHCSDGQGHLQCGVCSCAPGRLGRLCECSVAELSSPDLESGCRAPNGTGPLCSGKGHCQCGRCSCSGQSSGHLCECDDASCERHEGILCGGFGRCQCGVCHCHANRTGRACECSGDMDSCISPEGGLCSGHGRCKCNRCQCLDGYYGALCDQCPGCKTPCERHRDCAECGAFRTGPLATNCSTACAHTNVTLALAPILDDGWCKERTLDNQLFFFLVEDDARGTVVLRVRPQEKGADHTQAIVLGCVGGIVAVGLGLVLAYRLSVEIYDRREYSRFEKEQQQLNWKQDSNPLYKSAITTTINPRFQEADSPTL
Assay: Integrin α4β7-MAdCAM cell adhesion assay (RPMI8866 cells)
Assay type: cell-based
Conditions: RPMI8866 cells adhering to MAdCAM; read-out: RPMI8866 Adhesion α4β7/MAdCAM IC50
Method: Integrin α4β7-MAdCAM Cell Adhesion Assay
RPMI8866 cells were resuspended at 10 million cells/ml in PBS containing […] and incubated at 37° C. for 30 min in a 50 ml tube. […] The plate was emptied by inverting and blotting on paper towels and washed manually twice with PBS. 100 μl PBS was then added to each well. […] To calculate the dose response, the fluorescence value of control wells not containing cells was subtracted from each test well.

Row | Compound | pIC50
1 | CC(C)C[C@@H]1NC(=O)[C@H]2CCCCN2C(=O)[C@H](Cc2ccc(CNC(=O)CCCCCC(=O)NCc3ccc(C[C@@H]4NC(=O)[C@@H]5CCCN5[C@H](C(=O)NC(C)(C)C)[C@H](C)NC(=O)[C@H]([C@@H](C)O)NC(=O)[C@H](CC(=O)O)NC(=O)[C@H](CC(C)C)NC(=O)[C@H]5CCCCN5C4=O)cc3)cc2)NC(=O)[C@@H]2CCCN2[C@H](C(=O)NC(C)(C)C)[C@H](C)NC(=O)[C@H]([C@@H](C)O)NC(=O)[C@H](CC(=O)O)NC1=O [Compound 524] | 6.35
2 | CC(C)C[C@@H]1NC(=O)C[C@H](CCCCN)N(C)C(=O)[C@H](CCCCNC(=O)CCC(=O)NCCCC[C@@H]2NC(=O)[C@@H]3CCCN3[C@H](C(=O)NC(C)(C)C)[C@H](C)NC(=O)[C@H]([C@@H](C)O)NC(=O)[C@H](CC(=O)O)NC(=O)[C@H](CC(C)C)NC(=O)C[C@H](CCCCN)N(C)C2=O)NC(=O)[C@@H]2CCCN2[C@H](C(=O)NC(C)(C)C)[C@H](C)NC(=O)[C@H]([C@@H](C)O)NC(=O)[C@H](CC(=O)O)NC1=O [Compound 531] | 7.64
3 | CC(C)C[C@@H]1NC(=O)c2ccc(-c3ccc(N4CCN(C(=O)c5ccc(C(=O)N6CCN(c7ccc(-c8ccc9cc8CNC(=O)[C@@H]8CCCN8[C@H](C(=O)NC(C)(C)C)[C@H](C)NC(=O)[C@H]([C@@H](C)O)NC(=O)[C@H](CC(=O)O)NC(=O)[C@H](CC(C)C)NC9=O)cc7)CC6)c6ccccc56)CC4)cc3)c(c2)CNC(=O)[C@@H]2CCCN2[C@H](C(=O)NC(C)(C)C)[C@H](C)NC(=O)[C@H]([C@@H](C)O)NC(=O)[C@H](CC(=O)O)NC1=O [Compound 463] | 7.68
4 | CC(C)C[C@@H]1NC(=O)c2ccc(-c3ccc(N4CCN(C(=O)c5cccc(C(=O)N6CCN(c7ccc(-c8ccc9cc8CNC(=O)[C@@H]8CCCN8[C@H](C(=O)NC(C)(C)C)[C@H](C)NC(=O)[C@H]([C@@H](C)O)NC(=O)[C@H](CC(=O)O)NC(=O)[C@H](CC(C)C)NC9=O)cc7)CC6)n5)CC4)cc3)c(c2)CNC(=O)[C@@H]2CCCN2[C@H](C(=O)NC(C)(C)C)[C@H](C)NC(=O)[C@H]([C@@H](C)O)NC(=O)[C@H](CC(=O)O)NC1=O [Compound 472] | 7.10
5 | CC(C)C[C@@H]1NC(=O)c2ccc(-c3ccc(N4CCN(C(=O)CCCC(=O)N5CCN(c6ccc(-c7ccc8cc7CNC(=O)[C@@H]7CCCN7[C@H](C(=O)NC(C)(C)C)[C@H](C)NC(=O)[C@H]([C@@H](C)O)NC(=O)[C@H](CC(=O)O)NC(=O)[C@H](CC(C)C)NC8=O)cc6)CC5)CC4)cc3)c(c2)CNC(=O)[C@@H]2CCCN2[C@H](C(=O)NC(C)(C)C)[C@H](C)NC(=O)[C@H]([C@@H](C)O)NC(=O)[C@H](CC(=O)O)NC1=O [Compound 485] | 7.52
6 | CC(C)C[C@@H]1NC(=O)c2ccc(-c3ccc(N4CCN(C(=O)c5cccc(C(=O)N6CCN(c7ccc(-c8ccc9cc8CNC(=O)[C@@H]8CCCN8[C@H](C(=O)NC(C)(C)C)[C@H](C)NC(=O)[C@H]([C@@H](C)O)NC(=O)[C@H](CC(=O)O)NC(=O)[C@H](CC(C)C)NC9=O)cc7)CC6)c5)CC4)cc3)c(c2)CNC(=O)[C@@H]2CCCN2[C@H](C(=O)NC(C)(C)C)[C@H](C)NC(=O)[C@H]([C@@H](C)O)NC(=O)[C@H](CC(=O)O)NC1=O [Compound 497] | 7.60
7 | CC(C)C[C@@H]1NC(=O)c2ccc(-c3ccc(N4CCN(C(=O)C5(C(=O)N6CCN(c7ccc(-c8ccc9cc8CNC(=O)[C@@H]8CCCN8[C@H](C(=O)NC(C)(C)C)[C@H](C)NC(=O)[C@H]([C@@H](C)O)NC(=O)[C@H](CC(=O)O)NC(=O)[C@H](CC(C)C)NC9=O)cc7)CC6)CC5)CC4)cc3)c(c2)CNC(=O)[C@@H]2CCCN2[C@H](C(=O)NC(C)(C)C)[C@H](C)NC(=O)[C@H]([C@@H](C)O)NC(=O)[C@H](CC(=O)O)NC1=O [Compound 459] | 7.48
8 | CC(C)C[C@@H]1NC(=O)c2ccc(-c3ccc(N4CCN(C(=O)CN(C)CC(=O)N5CCN(c6ccc(-c7ccc8cc7CNC(=O)[C@@H]7CCCN7[C@H](C(=O)NC(C)(C)C)[C@H](C)NC(=O)[C@H]([C@@H](C)O)NC(=O)[C@H](CC(=O)O)NC(=O)[C@H](CC(C)C)NC8=O)cc6)CC5)CC4)cc3)c(c2)CNC(=O)[C@@H]2CCCN2[C@H](C(=O)NC(C)(C)C)[C@H](C)NC(=O)[C@H]([C@@H](C)O)NC(=O)[C@H](CC(=O)O)NC1=O [Compound 501] | 7.42
9 | CC(C)C[C@@H]1NC(=O)c2ccc(-c3ccc(N4CCN(C(=O)COCCOCCOCC(=O)N5CCN(c6ccc(-c7ccc8cc7CNC(=O)[C@@H]7CCCN7[C@H](C(=O)NC(C)(C)C)[C@H](C)NC(=O)[C@H]([C@@H](C)O)NC(=O)[C@H](CC(=O)O)NC(=O)[C@H](CC(C)C)NC8=O)cc6)CC5)CC4)cc3)c(c2)CNC(=O)[C@@H]2CCCN2[C@H](C(=O)NC(C)(C)C)[C@H](C)NC(=O)[C@H]([C@@H](C)O)NC(=O)[C@H](CC(=O)O)NC1=O [Compound 508] | 7.34
10 | CC(C)C[C@@H]1NC(=O)c2ccc(-c3ccc(N4CCN(C(=O)CCCCC(=O)N5CCN(c6ccc(-c7ccc8cc7CNC(=O)[C@@H]7CCCN7[C@H](C(=O)NC(C)(C)C)[C@H](C)NC(=O)[C@H]([C@@H](C)O)NC(=O)[C@H](CC(=O)O)NC(=O)[C@H](CC(C)C)NC8=O)cc6)CC5)CC4)cc3)c(c2)CNC(=O)[C@@H]2CCCN2[C@H](C(=O)NC(C)(C)C)[C@H](C)NC(=O)[C@H]([C@@H](C)O)NC(=O)[C@H](CC(=O)O)NC1=O [Compound 486] | 7.38
11 | CC(C)C[C@@H]1NC(=O)c2ccc(-c3ccc(N4CCN(C(=O)CCOCCOCCOCCOCCOCCOCCOCCOCCOCCOCCOCCOCCOCCC(=O)N5CCN(c6ccc(-c7ccc8cc7CNC(=O)[C@@H]7CCCN7[C@H](C(=O)NC(C)(C)C)[C@H](C)NC(=O)[C@H]([C@@H](C)O)NC(=O)[C@H](CC(=O)O)NC(=O)[C@H](CC(C)C)NC8=O)cc6)CC5)CC4)cc3)c(c2)CNC(=O)[C@@H]2CCCN2[C@H](C(=O)NC(C)(C)C)[C@H](C)NC(=O)[C@H]([C@@H](C)O)NC(=O)[C@H](CC(=O)O)NC1=O [Compound 504] | 7.38
12 | CC(C)C[C@@H]1NC(=O)[C@H]2Cc3ccccc3CN2C(=O)[C@H](Cc2cccc(CNC(=O)CCCCCCC(=O)NCc3cccc(C[C@@H]4NC(=O)[C@@H]5CCCN5[C@H](C(=O)NC(C)(C)C)[C@H](C)NC(=O)[C@H]([C@@H](C)O)NC(=O)[C@H](CC(=O)O)NC(=O)[C@H](CC(C)C)NC(=O)[C@H]5Cc6ccccc6CN5C4=O)c3)c2)NC(=O)[C@@H]2CCCN2[C@H](C(=O)NC(C)(C)C)[C@H](C)NC(=O)[C@H]([C@@H](C)O)NC(=O)[C@H](CC(=O)O)NC1=O [Compound 528] | 7.33
13 | CC(C)C[C@@H]1NC(=O)c2ccc(-c3ccc(N4CCN(C(=O)CCCCCCCC(=O)N5CCN(c6ccc(-c7ccc8cc7CNC(=O)[C@@H]7CCCN7[C@H](C(=O)NC(C)(C)C)[C@H](C)NC(=O)[C@H]([C@@H](C)O)NC(=O)[C@H](CC(=O)O)NC(=O)[C@H](CC(C)C)NC8=O)cc6)CC5)CC4)cc3)c(c2)CNC(=O)[C@@H]2CCCN2[C@H](C(=O)NC(C)(C)C)[C@H](C)NC(=O)[C@H]([C@@H](C)O)NC(=O)[C@H](CC(=O)O)NC1=O [Compound 488] | 7.47
